Assay results as given in US7763439B2, “Two-photon absorbing dipyrrometheneboron difluoride dyes and their applications” (Arctic Diagnostics Oy, priority 2001, dated 2010).

Key:
[1] = Two-photon fluorescence yields of dyes in solution, laser with high two-photon excitation efficiency; type: physicochemical; settings: 100 nM dye in ethanol (R-PE in PBS pH 7.4); 1064 nm Nd:YAG microchip laser; normalised to Rhodamine B (100)
From the text: (§1) FIG. 1 is a plot of two-photon excitations vs. illumination intensity. At low illumination intensities (A) excitation follows a quadratic dependence of the illumination intensity. In order to maximise the two-photon excited fluorescence a dye should be excited close to saturation level (B). At saturation level (C) almost all of the dye molecules become excited. FIG. 2a present alkyl substituted dipyrrometheneboron difluoride dyes described in examples 1-3 as compounds 1-3. FIGS. 2b and 2c present heteroaryl substituted dipyrrometheneboron difluoride dyes described in examples 4-9 as compounds 4-9. X^+ is a cationic counterion. FIG. 2d presents phenyl substituted dipyrrometheneboron difluoride dyes described in examples 10 and 11 as compounds 10 and 11. X^+ is a cationic counterion. FIGS. 2e and 2f present phenylethenyl substituted dipyrromethene-boron difluoride dyes described in examples 12 and 13 as compounds 12 and 13. X^+ is a cationic counterion. FIGS. 2g and 2h present thienyl substituted dipyrrometheneboron difluoride dyes with amino-, arylamino-, maleimide- and isothiocyanate reactive groups described in examples 14-17 as compounds 14-17. X^+ is a cationic counterion. FIG. 3 presents a linker compound 18 that is used to increase solubility of the dyes in aqueous solutions. X^+ is a cationic counter-ion. FIG. 4 is a plot of two-photon fluorescence signal vs. analyte (AFP) concentration in an immunoassay based on two-photon fluorescence as described in example 21. The AFP concentration 0 ng/ml is presented as a concentration of 0.1 ng/ml because of the logarithmic scale used in FIG. 4. FIG. 5 is an optical scheme of the instrument used in two-photon fluorescence measurements. A passively Q-switched Nd:YAG microchip laser 1 is used as an illumination source for two-photon excited fluorescence. The wavelength of the laser is 1064 nm, the pulse duration is 1 ns and the repetition rate is 20 kHz. The naturally diverging laser light beam is directed with a dichroich mirror 2 through an optical scanner unit 3 to the entrance aperture of the objective lens 4. The illumination at the entrance aperture is gaussian filling about 70% of the full aperture. The objective lens then focuses the illumination light into a special cuvette 5 that has a thin optical bottom (thickness 0.2 mm). The average optical output power reaching the sample is 50 mW. The size of the focal volume is about 1 femtoliter. The two-photon excited fluorescence signal in the range 540-700 nm is collected from the full aperture of the objective lens 4 and directed through the dichroich mirror 2 and the band pass filter 6 to the photomultiplier tube 7. In case of particle measurements, both the two-photon excited fluorescence light and the microparticle back-scattered (reflected) laser light are measured. The dichroich mirror 2 and the 2% beam splitting window 8 deflect the back-scattered light to the pinhole 9 making the detection of the scattering signal confocal. The detector for the scattering signal is a near infrared GaAs pin photodiode 10. The particles are continuously tracked by using a three-dimensional beam scanner 3. The xy-scanner is optomechanical and is positioned as close to the entrance aperture of the objective lens as possible. […] Optical pressure caused by the illuminating laser beam traps the particle and guides it through the centre of laser beam focus. The fluorescence signal is measured while the particle is in focus i.e. the back scattering signal exceeds the preset threshold. In addition to xy-scanning a further z-scanning movement is performed by moving the objective slowly in the axial direction. The amplitude of this movement is 150 μm and the movement is not stopped for particle measurement. Despite of slow z-scanning the particle remains in the focus on basis of optical trapping forces.
The two-photon fluorescence yields were measured using experimental apparatus shown schematically in FIG. 5. […]

[2] = Single pulse effect: z-response, 20% to 80% fluorescence intensity distance in dye solution; type: physicochemical; settings: dye solution between two microscope slides; two-photon excitation
From the text: as §1
The direct measurement of quenching by single pulse effect is difficult. […]

Compound | Normalised two-photon fluorescence yield [1] [a.u.] | 20% to 80% fluorescence intensity distance values [2] [a.u.]
4,4-difluoro-1,3,5,7-tetramethyl-6-carboxyethyl-4-bora-3a,4a-diaza-s-indacene-2-propionic acid succinimidylester [Compound 3] | 18 | 11.5
O=C(O)CCC1=[N+]2C(=Cc3c(-c4ccccc4)cc(-c4ccccc4)n3[B-]2(F)F)C=C1 [BODIPY 530/550] | 66 | 12.2
O=C(O)CCC1=[N+]2C(=Cc3ccc(-c4cccs4)n3[B-]2(F)F)C=C1 [BODIPY 558/568] | 101 | 13.7
CCN(CC)c1ccc2c(-c3ccccc3C(=O)O)c3ccc(=[N+](CC)CC)cc-3oc2c1.[Cl-] [Rhodamine B] | 100 | 16.5
Glu-Tau-succinimide derivative of 4,4-difluoro-5-(2-thienyl)-1,3-dimethyl-4-bora-3a,4a-diaza-s-indacene-2-propionic acid [Compound 8] | 219 | 12.6
R-phycoerythrin [R-PE] | 618 | 21.5
